In patent US20240150286A1, “PEROXISOME PROLIFERATOR-ACTIVATED RECEPTOR GAMMA (PPARy) LIGANDS AND METHODS OF USE AS TREATMENTS FOR INSULIN RESISTANCE, OBESITY, FATTY LIVER DISEASE, AND TYPE 2 DIABETES” (The Board of Regents of the University of Oklahoma, priority 2022, published 2024):

Columns and labels:
[1] = tested on: diet-induced obesity (DIO) mice; test: TZD-associated side effects in DIO mice (PCV, heart weight, cardiac and bone genes); type: in vivo, mouse
Description: C57BL/6J male mice were obtained from Jackson laboratory (Bar Harbor, ME) and maintained on a 12 h light (6:00 AM to 6:00 PM)—12 h dark (6:00 PM to 6:00 AM) cycle at an ambient temperature of 22±1° C. All animals had access to diet and water ad libitum. All procedures involving animals were approved by the Institutional Animal Care and Use Committee of the University of Oklahoma Health Science Center. All experiments were performed with age-matched male mice. The mice were fed a high-fat diet (HFD) (60% kcal fat, Bio-Serv, NJ, USA) starting from the age of 6 weeks until study end. […] Food intake was determined manually by measuring the amount of input food subtracting the amount of the food remaining in the food hopper and the crumbs on the bedding of the cage each day for three days during the 4th week of the treatment. Packed cell volume (PCV) was measured with blood drawn from tail on a LW Scientific E8 centrifuge (LW Scientific, Lawrenceville, Georgia, USA) microhematocrit centrifuge at the end of study. For all other measurements, the blood was drawn at the time of euthanization.
(§1) Total RNA (2 μg) was isolated from tissues or cells using TRIzol reagents (Life Technologies) and reverse transcribed using oligo d(T) primers (New England Biosystems) and SuperScript IV reverse transcription kit (Applied Biosystems). qPCR was performed in a CFX96 Touch Real-Time PCR detection system using SYBR Green mix (Applied Biosystems). The amplification program was as follows: initial denaturation at 95° C. for 15 min, followed by 40 cycles of 95° C. for 15 s, 60° C. for 1 min, and 40° C. for 30 s. Relative mRNA expression was determined by the ΔΔCt method normalized to TBP mRNA.

[2] = tested on: PPARγ S273 phosphorylation; test: PPARγ S273 phosphorylation and phosphorylation-dependent genes in 3T3-L1 differentiated adipocytes; type: cell-based, mouse; settings: 3T3-L1 differentiated adipocytes, TNFα 10 ng/ml 1 h, compounds at 10 μM, Western blot
Description: as §1

PPARγ = biological target: T1, PPARγ (Homo sapiens, UniProt P37231); settings: cited from earlier work
T1 sequence (P37231 1-505): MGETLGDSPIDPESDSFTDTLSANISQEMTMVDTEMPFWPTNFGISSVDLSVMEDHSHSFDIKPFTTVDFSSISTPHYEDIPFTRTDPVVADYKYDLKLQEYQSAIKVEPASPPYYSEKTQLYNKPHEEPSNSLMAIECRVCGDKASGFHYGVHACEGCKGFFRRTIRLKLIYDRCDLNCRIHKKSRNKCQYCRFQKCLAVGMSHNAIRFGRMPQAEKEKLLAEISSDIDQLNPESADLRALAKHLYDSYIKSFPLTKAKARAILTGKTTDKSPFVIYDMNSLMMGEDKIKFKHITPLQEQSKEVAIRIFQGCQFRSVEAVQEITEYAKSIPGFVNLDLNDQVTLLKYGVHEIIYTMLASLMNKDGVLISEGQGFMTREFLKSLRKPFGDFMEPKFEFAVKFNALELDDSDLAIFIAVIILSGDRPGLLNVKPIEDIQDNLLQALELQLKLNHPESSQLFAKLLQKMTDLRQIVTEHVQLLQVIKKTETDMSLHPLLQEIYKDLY

human PPARγ2 = biological target: T2, human PPARγ2 (Homo sapiens, UniProt P37231); test: PPARγ transactivation reporter assay (3×PPRE-luc) in HEK-293 cells; type: cell-based; settings: HEK293, PPARγ2 + 3×PPRE-luc, relative to Rosi
T2 construct: host or cells: HEK-293
T2 sequence (P37231 1-505): T1 sequence (P37231 1-505)
Description: HEK-293 cells were seeded overnight, co-transfected with plasmids expressing human PPARγ2 and 3×PPRE-luc (both from Addgene) followed by incubation for 16 h, and then re-seeded in a 384-well plate and incubated for 24 h. Compounds were added and then incubated another 24 h. Luciferase activity was analyzed in each well using Bright-Glo Luciferase kit (Promega).

| Compound | mRNA levels of bone formation genes (Bglap, SPP1, ColA1) ([1]; 4-week treatment) | heart weight ([1]; relative to vehicle) | mRNA levels of Myh7 and Nppb in heart ([1]; vs vehicle) | S273 phosphorylation of PPARγ [2] | PPARγ binding affinity (literature) (PPARγ) | PPARγ phosphorylation at S273 (literature) (PPARγ) | 3×PPRE-luc reporter activity as % of potency of Rosi (human PPARγ2) |
| --- | --- | --- | --- | --- | --- | --- | --- |
| CN(CCOc1ccc(CC2SC(=O)NC2=O)cc1)c1ccccn1 (stereo not shown) [Rosi, rosiglitazone, reference compound] | decreased their expression significantly | significant increase | increased |  |  |  |  |
| Cc1c(C)n(Cc2ccc(-c3ccccc3C(=O)O)cc2)c2ccc(C(=O)NCc3cccnc3)cc12 [UHC1, 4′ -((2,3-Dimethyl-5-(pyridine-3-ylmethylcarboamyl)-1H-indol-1-yl)methyl)biphenyl-2-carboxylic acid, reference compound] |  |  |  | significantly inhibited | poor | inhibit | approximately 45% |
